Reference: patent publication US20220040324A1, “COMBINATION OF ANTIBODY-DRUG CONJUGATE AND KINASE INHIBITOR” (DAIICHI SANKYO COMPANY, LIMITED, priority 2018, published 2022)

Key:
BxPC-3 cell line = assay type: cell-based, human; conditions: combined with mubritinib, 6 days culture, >0 synergistic, 0 additive, <0 antagonistic
Experimental: (§1) Cell growth inhibition rate (%) was calculated by using the following calculation expression.
(§2) T: Mean luminescence intensity of wells with specimen B: Mean luminescence intensity of wells with DMSO and medium C: Mean luminescence intensity of wells with DMSO and cells
(§3) Sigmoid fitting with Genedata Screener Analyzer Version 14 (Genedata AG, hereinafter referred to as Screener) was performed for concentration-dependent transition of cell growth inhibition rates under each of combined use conditions.
(§4) After culturing, a solution obtained by diluting CellTiter-Glo 2.0 Assay (Promega Corporation) with an equivalent amount of Glo Lysis buffer, 1×(Promega Corporation) was added at 2 μL/well, and incubation was performed at room temperature for 1 hour, and luminescence intensity was then measured for each well.

KPL-4 cell line = assay type: cell-based, human; conditions: 6 days culture, >0 synergistic, 0 additive, <0 antagonistic
Experimental: as §1, §2, §3

EBC-1 cell line = assay type: cell-based, human; conditions: combined with mubritinib, 6 days culture, >0 synergistic, 0 additive, <0 antagonistic
Experimental: as §1, §2, §3

NCI-N87 cell line = assay type: cell-based, human; conditions: 6 days culture, >0 synergistic, 0 additive, <0 antagonistic
Experimental: The human gastric cancer cell line NCI-N87 purchased from ATCC was used for evaluation. To a 1536-well cell culture plate, erlotinib (hydrochloride), poziotinib, mubritinib, brigatinib, or BIBF1120 prepared with dimethyl sulfoxide (DMSO) to concentrations of 2 mM, 400 μM, 80 μM, 16 μM, 3.2 μM, and 640 nM, or DMSO was added at 25 nL/well. […] Subsequently, NCI-N87 cells suspended with an RPMI1640 Medium containing 10% fetal bovine serum to a concentration of 4×10^4 cells/mL were seeded at 2.5 μL/well, and cultured at 37° C. under 5% CO2 for 6 days.
as §4, §1, §2, §3

MDA-MB-453 cells [1] = experiment: Antitumor test (1): nude mice with subcutaneously transplanted MDA-MB-453 cells; assay type: in vivo, human; conditions: single administration, five times a week
Experimental: (§5) Mouse: 5 to 6-week-old BALB/c nude mice (Charles River Laboratories Japan, Inc.) were subjected to experiment.
(§6) Assay and calculation expression: In all of the studies, the major axis and minor axis of a tumor were measured twice a week by using an electronic digital caliper (CD15-CX, Mitutoyo Corp.), and the tumor volume (mm^3) was calculated. The calculation expression is as shown below.
(§7) Tumor volume (mm^3)=1/2×Major axis (mm)×[Minor axis (mm)]^2
(§8) Everolimus was suspended in 30% propylene glycol and 5% Tween 80, and orally administered at a liquid volume of 10 mL/kg. Taselisib was suspended in 0.5% methyl cellulose and 0.2% Tween 80, and orally administered at a liquid volume of 10 mL/kg. Abemaciclib was suspended in 1% hydroxyethyl cellulose and 0.1% antifoam/25 mM phosphate buffer, pH2, and orally administered at a liquid volume of 10 mL/kg.
Everolimus was administered once a day, five times a week, at a dose of 5 mg/kg for 3 weeks. Taselisib was administered once a day, five times a week, at a dose of 5 mg/kg for 3 weeks. Abemaciclib was administered once a day, five times a week, at a dose of 30 mg/kg for 2 weeks.

MDA-MB-453 cells [2] = experiment: Antitumor test (10): nude mice with subcutaneously transplanted MDA-MB-453 cells; assay type: in vivo, human; conditions: single administration
Experimental: as §5, §6, §7
MDA-MB-453 cells, a human breast cancer cell line, obtained from ATCC were suspended in Matrigel basement membrane matrix, and 1×10^7 cells were subcutaneously transplanted to the right flank of each female nude mouse, and the mice were randomly grouped 7 days after the transplantation (Day 0). The antibody-drug conjugate (2) was diluted with ABS buffer, and intravenously administered to the tail vein of each mouse once a week at a dose of 1 mg/kg (a liquid volume of 10 mL/kg) for three weeks (Days 0, 7, 14). Alpelisib was suspended in 0.5% methyl cellulose, and orally administered once a day, five times a week, at a dose of 25 mg/kg (a liquid volume of 10 mL/kg) for three weeks from Day 0. Single administration groups and a combined administration group with the antibody-drug conjugate (2) and alpelisib, and an ABS administration group as a control group were established.

786-0 cells = experiment: Antitumor test (8): nude mice with subcutaneously transplanted 786-0 cells; assay type: in vivo, human; conditions: single administration
Experimental: as §5, §6, §7
Suspended in 100% Matrigel were 786-0 cells, a human kidney cancer cell line, purchased from ATCC, and 4×10^6 cells were subcutaneously transplanted to the right flank of each female nude mouse, and the mice were randomly grouped 19 days after the transplantation (Day 0). […] Cabozantinib was administered once a day, five times a week, 20 times in total, at a dose of 40 mg/kg.

JIMT-1 cells = experiment: Antitumor test (2): nude mice with subcutaneously transplanted JIMT-1 cells; assay type: in vivo, human; conditions: single administration; everolimus 5 mg/kg once a day, five times a week, seven times in total
Experimental: as §5, §6, §7, §8

KPL-4 cells [3] = experiment: Antitumor test (7): nude mice with subcutaneously transplanted KPL-4 cells; assay type: in vivo, human; conditions: single administration
Experimental: as §5, §6, §7
KPL-4 cells, a human breast cancer cell line, obtained from Dr. Junichi Kurebayashi, Kawasaki Medical School (British Journal of Cancer. (1999)79 (5/6). 707-717) were suspended in physiological saline, and 1.5×10^7 cells were subcutaneously transplanted to the right flank of each female nude mouse, and the mice were randomly grouped 17 days after the transplantation (Day 0). The antibody-drug conjugate (2) was diluted with ABS buffer, and intravenously administered to the tail vein of each mouse once a week at a dose of 10 mg/kg (a liquid volume of 10 mL/kg) for three weeks (Days 0, 7, 14). Neratinib was suspended in 0.5% methyl cellulose, and orally administered once a day, five times a week, at a dose of 20 mg/kg (a liquid volume of 10 mL/kg) for two weeks. Single administration groups and a combined administration group with the antibody-drug conjugate (2) and neratinib, and an ABS administration group as a control group were established.

MDA-MB-453 cells [4] = experiment: Antitumor test (9): nude mice with subcutaneously transplanted MDA-MB-453 cells; assay type: in vivo, human; conditions: single administration
Experimental: as §5, §6, §7
Palbociclib was suspended in 0.5% methyl cellulose, and orally administered once a day, five times a week, at a dose of 50 mg/kg (a liquid volume of 10 mL/kg) for three weeks from Day 0.

COLO201 cells = experiment: Antitumor test (3): nude mice with subcutaneously transplanted COLO201 cells; assay type: in vivo, human; conditions: single administration; regorafenib 10 mg/kg orally once a day, five times a week, three weeks
Experimental: as §5, §6, §7, §8

MDA-MB-453 cells [5] = experiment: Antitumor test (5): nude mice with subcutaneously transplanted MDA-MB-453 cells; assay type: in vivo, human; conditions: single administration; tucatinib 100 mg/kg once a day, five times a week, three weeks
Experimental: as §5, §6, §7, §8

NCI-N87 cells = experiment: Antitumor test (6): nude mice with subcutaneously transplanted NCI-N87 cells; assay type: in vivo, human; conditions: single administration; tucatinib 100 mg/kg once a day, five times a week, two weeks
Experimental: as §5, §6, §7, §8

KPL-4 cells [6] = experiment: Antitumor test (4): nude mice with subcutaneously transplanted KPL-4 cells; assay type: in vivo, human; conditions: single administration; tucatinib 100 mg/kg orally once a day, five times a week, two weeks
Experimental: as §5, §6, §7, §8

## CC[C@@]1(O)C(=O)OCc2c1cc1n(c2=O)Cc2c-1nc1cc(F)c(C)c3c1c2[C@@H](NC(=O)CO)CC3 [Compound (1)]
BxPC-3 cell line
  Synergy Score, combination with Mubritinib: −0.40
KPL-4 cell line; combined with brigatinib
  Synergy Score, combination with Brigatinib: −0.02
KPL-4 cell line; combined with poziotinib
  Synergy Score, combination with Poziotinib: −0.38
EBC-1 cell line
  Synergy Score, combination with Mubritinib: −0.60
NCI-N87 cell line; combined with BIBF1120 (nintedanib)
  Synergy Score, combination with BIBF1120: −0.44
NCI-N87 cell line; combined with mubritinib
  Synergy Score, combination with Mubritinib: −0.45
NCI-N87 cell line; combined with poziotinib
  Synergy Score, combination with Poziotinib: −0.53

## CCN1CCN(Cc2ccc(Nc3ncc(F)c(-c4cc(F)c5nc(C)n(C(C)C)c5c4)n3)nc2)CC1 [abemaciclib]
MDA-MB-453 cells [1]; abemaciclib 30 mg/kg orally once a day, 2 weeks
  tumor growth inhibition (TGI): 68%

## Cc1nc(NC(=O)N2CCC[C@H]2C(N)=O)sc1-c1ccnc(C(C)(C)C(F)(F)F)c1 [alpelisib]
MDA-MB-453 cells [2]; alpelisib 25 mg/kg orally once a day, five times a week, three weeks from Day 0
  tumor growth inhibition (TGI): 56%

## COc1cc2nccc(Oc3ccc(NC(=O)C4(C(=O)Nc5ccc(F)cc5)CC4)cc3)c2cc1OC [cabozantinib]
786-0 cells; cabozantinib 40 mg/kg once a day, five times a week, 20 times in total
  tumor growth inhibition (TGI): 67%

## CO[C@H]1C[C@@H]2CC[C@@H](C)[C@@](O)(O2)C(=O)C(=O)N2CCCC[C@H]2C(=O)O[C@H]([C@H](C)C[C@@H]2CC[C@@H](OCCO)[C@H](OC)C2)CC(=O)[C@H](C)/C=C(\C)[C@@H](O)[C@@H](OC)C(=O)[C@H](C)C[C@H](C)/C=C/C=C/C=C/1C [everolimus]
MDA-MB-453 cells [1]; everolimus 5 mg/kg orally once a day, 3 weeks, BALB/c nude mice, day of effect determination
  tumor growth inhibition (TGI): 64%
JIMT-1 cells
  tumor growth inhibition (TGI): 52%

## CCOc1cc2ncc(C#N)c(Nc3ccc(OCc4ccccn4)c(Cl)c3)c2cc1NC(=O)/C=C/CN(C)C [neratinib]
KPL-4 cells [3]; neratinib 20 mg/kg orally once a day, five times a week, two weeks, day of effect determination
  tumor growth inhibition (TGI): 84%

## CC(=O)c1c(C)c2cnc(Nc3ccc(N4CCNCC4)cn3)nc2n(C2CCCC2)c1=O [palbociclib]
MDA-MB-453 cells [4]; palbociclib 50 mg/kg orally once a day, five times a week, three weeks from Day 0
  tumor growth inhibition (TGI): 72%

## CNC(=O)c1cc(Oc2ccc(NC(=O)Nc3ccc(Cl)c(C(F)(F)F)c3)c(F)c2)ccn1 [regorafenib]
COLO201 cells
  tumor growth inhibition (TGI): 81%

## Cc1nc(-c2cn3c(n2)-c2ccc(-c4cnn(C(C)(C)C(N)=O)c4)cc2OCC3)n(C(C)C)n1 [taselisib]
MDA-MB-453 cells [1]; taselisib 5 mg/kg orally once a day, 3 weeks
  tumor growth inhibition (TGI): 67%

## Cc1cc(Nc2ncnc3ccc(NC4=NC(C)(C)CO4)cc23)ccc1Oc1ccn2ncnc2c1 [tucatinib]
MDA-MB-453 cells [5]
  tumor growth inhibition (TGI): 36%
NCI-N87 cells
  tumor growth inhibition (TGI): 65%
KPL-4 cells [6]
  tumor growth inhibition (TGI): 78%

## antibody-drug conjugate (2): anti-HER3 antibody (SEQ ID NO: 3 and 4) conjugated to the drug-linker via thioether bond; DAR 7 to 8
MDA-MB-453 cells [2]; antibody-drug conjugate (2) 1 mg/kg iv once a week, three weeks (Days 0, 7, 14), grouped 7 days after transplantation
  tumor growth inhibition (TGI): 68%
KPL-4 cells [3]; antibody-drug conjugate (2) 10 mg/kg iv once a week, three weeks (Days 0, 7, 14)
  tumor growth inhibition (TGI): 67%
MDA-MB-453 cells [4]; antibody-drug conjugate (2) 1 mg/kg iv once a week, three weeks (Days 0, 7, 14), grouped 11 days after transplantation
  tumor growth inhibition (TGI): 54%

B1: antibody-drug conjugate (3): anti-CDH6 antibody (SEQ ID NO: 9 residues 20-471, SEQ ID NO: 10 residues 21-233) conjugated to the drug-linker via thioether bond; DAR 7 to 8 (conjugate, chains of the INN, looked up)
VH: EVQLVQSGAEVKKPGASVKVSCKASGYTFTRNFMHWVRQAPGQGLEWMGWIYPGDGETEYAQKFQGRVTITADTSTSTAYMELSSLRSEDTAVYYCARGVYGGFAGGYFDFWGQGTLVTVSS
VL: DIQMTQSPSSLSASVGDRVTITCKASQNIYKNLAWYQQKPGKAPKLLIYDANTLQTGVPSRFSGSGSGSDFTLTISSLQPEDFATYFCQQYYSGWAFGQGTKVEIK
modifications: deruxtecan-type drug-linker, DAR 7-8
786-0 cells; antibody-drug conjugate (3) 10 mg/kg iv on Day 0
  tumor growth inhibition (TGI): 71%
